Laboratory results from PMC7249156, “Tricyclic Derivative of Acyclovir and Its Esters in Relation to the Esters of Acyclovir Enzymatic Stability: Enzymatic Stability Study” (Molecules, 2020).
Read-outs that look alike come from different tables or passages of the source.

Experiments:
[1] = Stability test (hydrolysis) in human plasma (80%, 37 °C); format: in vitro ADME
Method: The condition for determining the values of the observed rate constants is to observe changes in the concentration of the tested compound over time ensuring degradation of at least 80% of the compound. In plasma, hydrolysis reactions were carried out until a minimum 50% loss of the tested compound was obtained except for the extremely stable 6-(4-MeOPh)-TACV under these conditions. In this case, the observed loss was 22% during the 25-h reaction. Further carrying out of this reaction in vitro in a temperature of 37 °C was not recommended (Figure 2).
Stability tests were performed in human plasma (80%, v/v) thermostated in a water bath at 37 °C. In total, 2.50 mg of each of the analyzed compounds were weighed and dissolved in 0.5 mL of DMSO (5.0 mg/mL). For plastic screw-on tubes containing 4.0 mL of plasma, 0.8 mL of PBS buffer were added, mixed, and thermostated in a water bath. Then, 0.2 mL of the tested compound solution in DMSO (5.0 mg/mL) were added to the incubated plasma. Samples were thermostated at 37 °C and at specified intervals. After mixing, 0.2 mL of the test sample were taken and transferred to 0.4 mL of the appropriate internal standard solution (Table 1). After mixing, the samples were centrifuged for […] (5 min, 13,000 rpm). The supernatant was transferred to the tubes and analyzed by the HPLC method in a suitable phase system (Table 1). The initial concentration of the tested compounds in the plasma was 200 μg/mL, while in the analyte solution (supernatant) it was 66.7 μg/mL.
(§1) The HPLC-MS/MS method was used for analysis of the solutions hydrolyzed in plasma (80% v/v, 37 °C, 24 h) and in plasma (80%, v/v) with porcine esterase at a concentration of 5.50 × 10^−9 M (37 °C, 2 h). The samples were prepared according to the procedure described in Section 3.4.1 and Section 3.4.2, and then diluted with water in a proportion of 1:100 (v/v).

[2] = Stability of the analyte (supernatant) on storage; format: physicochemical; details: supernatant stored in freezer (−20 °C)
Method: For each substance, samples with two concentrations in the linearity range of the method were prepared. The supernatants of both solutions were analyzed by HPLC immediately after preparation and after storage at room temperature (25 °C), in a refrigerator (4 °C) and freezer compartment (−20 °C). The degree of decomposition of the tested compounds with respect to the initial value was determined.

[3] = test system: esterase from porcine liver (PLE); experiment: Stability test in plasma (80%, 37 °C) with porcine liver esterase; format: in vitro ADME; details: for kobs. ± Δkobs. / t0.5: plasma 80%
Description: For the correct interpretation of the distribution of the tested compounds under the influence of esterase, it is necessary to know the specificity of the enzymatic reactions (Scheme 1). The biotransformation occurring during enzymatic hydrolysis can be treated as a limited capacity process and described using the Michaelis–Menten equation:(2) V=−dc/dt=Vm·c/KM+c, where: c—substance concentration, V = −(dc/dt)—rate of change of substance concentration, Vm—maximum theoretical speed of the process, and KM—Michaelis constant (numerically equal to the concentration of the substance at which its elimination occurs at a rate equal to half of Vm).
In case the value of the Michaelis constant is much higher than the concentration of the substance (KM >> c), Equation (2) can be simplified to the form of:(3) V=−dc/dt=k2/KM·cE·c=Vm/KM·c=kobs.·c, where: cE—enzyme concentration.
After transformation:(4) kobs.=k2/KM·cE=Vm/KM.
A 1 U/μL aqueous pork esterase solution was prepared by diluting the suspension with 200 μL of water. Here, 168,000 Da was used as the molecular weight of the esterase and the molar concentration of the enzyme in a determined volume of the test sample of 5.0 mL was calculated (1 μL of the enzyme solution in 5.0 mL corresponded to a concentration of 5.50 × 10^−9 M).
For plastic screw-on tubes containing 4.0 mL of plasma, 0.8 mL of PBS buffer was added, mixed, and thermostated in a water bath (37 °C). A fixed volume of enzyme (0.5–11.0 μL) was added to the incubated plasma, mixed, and thermostated for 15 min. Then, 0.2 mL of the tested compound solution in DMSO (5.00 mg/mL) were added, mixed thoroughly, and proceeded as described in Section 3.4.1.
as §1

[4] = design: method as in PMID 18638532; details: valaciclovir; cited from earlier work

Row | Structure (SMILES) | kobs. ± Δkobs. (pseudo-first-order rate constant of hydrolysis) ([1]; human plasma 80%) | t0.5 ([1]; human plasma 80%) | time for which analyte solution was considered stable [2] | kobs. ± Δkobs. ([3]; cE 2.0 U, 1.10·10^−8 M) | t0.5 ([3]; cE 2.0 U, 1.10·10^−8 M) | kobs. ± Δkobs. ([3]; cE 3.0 U, 1.65·10^−8 M) | t0.5 ([3]; cE 3.0 U, 1.65·10^−8 M) | kobs. ± Δkobs. ([3]; cE 4.0 U, 2.20·10^−8 M) | t0.5 ([3]; cE 4.0 U, 2.20·10^−8 M) | kobs. ± Δkobs. ([3]; cE 6.0 U, 3.30·10^−8 M) | t0.5 ([3]; cE 6.0 U, 3.30·10^−8 M) | kobs. ± Δkobs. ([3]; cE 5.0 U, 2.75·10^−8 M) | t0.5 ([3]; cE 5.0 U, 2.75·10^−8 M) | other results
1 | COc1ccc(-c2cn3c(=O)c4ncn(COCCO)c4nc3[nH]2)cc1 [6-(4-MeOPh)-TACV, 3,9-Dihydro-3-[(2-hydroxyethoxy)methyl]-6-(4-methoxyphenyl)-9-oxo-5H-imidazo[1,2-a]–purine] | (2.81 ± 0.36)·10^−6 s^−1 | 68.40 h | 27 days | (7.39 ± 0.49)·10^−6 s^−1 | 1560 min | (8.21 ± 0.58)·10^−6 s^−1 | 1410 min | (8.37 ± 0.24)·10^−6 s^−1 | 1360 min | (9.58 ± 0.39)·10^−6 s^−1 | 1210 min |  |  | observed loss of compound ([1]; human plasma 80%, 25-h reaction): 22%; degree of hydrolysis seen by HPLC-MS/MS ([1]; plasma 80%, 24 h): occurred to a small extent; degree of hydrolysis seen by HPLC-MS/MS ([3]; plasma 80% with porcine esterase 5.50·10^−9 M, 2 h): occurred to a small extent
2 | CC(=O)OCCOCn1cnc2c(=O)[nH]c(N)nc21 [Ac-ACV] | (6.47 ± 0.49)·10^−5 s^−1 | 2.98 h |  |  | 264 min |  |  | (7.94 ± 0.23)·10^−5 s^−1 | 144 min | (1.15 ± 0.02)·10^−4 s^−1 | 102 min |  |  | kobs. ± Δkobs. ([3]; cE 8.0 U, 4.40·10^−8 M): (1.55 ± 0.04)·10^−4 s^−1; t0.5 ([3]; cE 8.0 U, 4.40·10^−8 M): 72 min
3 | CCOC(=O)OCCOCn1cnc2c(=O)[nH]c(N)nc21 [Etc-ACV] | (7.99 ± 0.37)·10^−5 s^−1 | 2.41 h | 27 days | (6.48 ± 0.35)·10^−4 s^−1 | 17.8 min | (8.60 ± 0.34)·10^−4 s^−1 | 13.4 min | (1.20 ± 0.03)·10^−3 s^−1 | 9.6 min |  |  | (1.54 ± 0.07)·10^−3 s^−1 | 7.5 min | 
4 | Nc1nc2c(ncn2COCCOC(=O)c2cccnc2)c(=O)[nH]1 [Nic-ACV] | (4.31 ± 0.23)·10^−4 s^−1 | 0.45 h |  |  |  | (5.35 ± 0.23)·10^−4 s^−1 | 21.6 min | (5.59 ± 0.50)·10^−4 s^−1 | 20.7 min | (6.03 ± 0.22)·10^−4 s^−1 | 19.2 min | (5.77 ± 0.32)·10^−4 s^−1 | 20.0 min | 
5 | CC(C)(C)C(=O)OCCOCn1cnc2c(=O)[nH]c(N)nc21 [Piv-ACV] | (2.38 ± 0.17)·10^−5 s^−1 | 8.09 h | 27 days | (4.71 ± 0.10)·10^−4 s^−1 | 24.5 min | (8.11 ± 0.15)·10^−4 s^−1 | 14.3 min |  |  |  |  | (1.40 ± 0.04)·10^−3 s^−1 | 8.3 min | kobs. ± Δkobs. ([3]; cE 1.0 U, 5.50·10^−9 M): (2.97 ± 0.09)·10^−4 s^−1; t0.5 ([3]; cE 1.0 U, 5.50·10^−9 M): 38.9 min
6 | CC(C)C(=O)OCCOCn1cnc2c(=O)[nH]c(N)nc21 [iBut-ACV] | (4.16 ± 0.16)·10^−4 s^−1 | 0.46 h |  | (3.98 ± 0.13)·10^−3 s^−1 | 2.9 min | (5.49 ± 0.20)·10^−3 s^−1 | 2.1 min |  |  |  |  |  |  | kobs. ± Δkobs. ([3]; cE 0.5 U, 2.75·10^−9 M): (1.24 ± 0.12)·10^−3 s^−1; t0.5 ([3]; cE 0.5 U, 2.75·10^−9 M): 9.3 min; kobs. ± Δkobs. ([3]; cE 1.0 U, 5.50·10^−9 M): (2.24 ± 0.09)·10^−3 s^−1; t0.5 ([3]; cE 1.0 U, 5.50·10^−9 M): 5.2 min
7 | CC(C)[C@H](N)C(=O)OCCOCn1cnc2c(=O)[nH]c(N)nc21 [valaciclovir] |  |  |  |  |  |  |  |  |  |  |  |  |  | t0.5 [4]: 226 h
